One assay concerns spinach. Kind of assay: Free amino acid content in spinach under cultivation temperature control. It counts as in vivo, Spinacia oleracea. The settings on record: 28 days. The procedure: (§1) A cultivation condition of spinach, which was a vegetable of the goosefoot family (Chenopodioideae), supplied with glutathione was examined. After spinach was seeded, sprouts germinated to a similar extent were selected, were cultivated in an incubator (light period: 14 hours/dark period: 10 hours, light intensity: about 250 μE/m^2/s), and were sampled after 28 days. As a cultivation temperature, two types of a low temperature condition LT (Low Temperature: light period 20° C./dark period 15° C.) and a high temperature condition HT (High Temperature: light period 25° C./dark period 20° C.) were set. […] Specifically, a single individual was put into each pot having about […], and 25 mL of each solution was provided to roots of each pot once a week. In the same way as Example 1, a leaf (or a terrestrial part) was measured as a sample in a cation mode and an anion mode of CE-TOFMS (capillary electrophoresis-time-of-flight mass spectrometry: Agilent CE-TOFMS system (Agilent technologies)). By comparing a detected peak with database on the basis of m/Z and a migration period, an amino acid was searched, identified, and quantified.

The subject of the next assay is Japanese mustard spinach. The settings on record: 28 days. The protocol: as §1, with “As” for “A cultivation condition of spinach, which was a vegetable of the goosefoot family (Chenopodioideae), supplied with glutathione was examined. After spinach was seeded, sprouts germinated to a similar extent were selected, were cultivated in an incubator (light period: 14 hours/dark period: 10 hours, light intensity: about 250 μE/m^2/s), and were sampled after 28 days. As”

A further assay concerns garland chrysanthemum. The assay can be described thus: Free amino acid content in garland chrysanthemum at various glutathione concentrations. It counts as in vivo, Chrysanthemum coronarium. The settings on record: 28 days. The protocol:
An effect on amino acid contents of garland chrysanthemum which was vegetable of the composite family (Compositae), to which garland chrysanthemum glutathione having various concentrations was supplied, was examined. After garland chrysanthemum was seeded, sprouts germinated similarly were selected, were cultivated in an incubator (light period: 14 hours, 20° C./dark period: 10 hours, 15° C., light intensity: about 250 μE/m^2/s), and were sampled after 28 days. As a medium, a soil formed by placing vermiculite (Asahi industrial corporation) as a lower layer, KUREHA seedling raising soil (KUREHA CORPORATION) as a middle layer, and vermiculite (Asahi industrial corporation) as an upper layer at a ratio of 2:1:1 in lamination was used.
In this experiment, only water (Cont.), 0.1 mM, 0.2 mM, 0.5 mM, 1 mM, 2 mM, and 5 mM of oxidized glutathione (GSSG) solutions were provided to plants.

In assay [1] the test system is Arabidopsis. It counts as in vivo, Arabidopsis thaliana.
The subject of assay [2] is Arabidopsis. It counts as in vivo, Arabidopsis thaliana. The settings on record: 1 mM GSSG, 2 mM GSH or 3 mM NH4NO3, 25 mL per pot to roots once a week.
Setting [3] is: high temperature condition (light 25° C./dark 20° C.), 1 mM GSSG.
Setting [4] is: low temperature condition (light 20° C./dark 15° C.), 2 mM GSH.

Like-named read-outs stand apart in the source and are kept apart here. Bounds are passed on as bounds.

As for `N[C@@H](CCC(=O)N[C@@H](CS)C(=O)NCC(=O)O)C(=O)O` [glutathione], in the assay with spinach (low temperature condition (light 20° C./dark 15° C.), observed in part of amino acids), the “effect on amino acid contents relative to control = 1 (FIG. 8)” value is “small”. In addition, the “effect of increase in amino acid content relative to control = 1 (FIG. 10)” value in the assay with Japanese mustard spinach (high temperature condition (light 25° C./dark 20° C.), β-alanine, asparagine, glutamine) was “observed in part of amino acids”.

oxidized glutathione [GSSG]: in the assay on spinach (setting [3]), the “glycine content relative to control” value was at least 5 times, the “homoserine content relative to control” value was at least 5 times, the “phenylalanine content relative to control” value was at least 5 times and the “tyrosine content relative to control” value is at least 5 times. In the assay on garland chrysanthemum (5 mM of GSSG), the “asparagine content, ratio to control = 1” value was at least 100 times; the “glutamine content, ratio to control = 1” value is at least 100 times; the “glycine content, ratio to control = 1” value is on record as at least 100 times; the “histidine content, ratio to control = 1” value is at least 100 times. Moreover, in the assay on garland chrysanthemum (5 mM of GSSG), the “homoserine content, ratio to control = 1” value is recorded as at least 100 times and the “total free amino acid content, ratio to control = 1” value is on record as 24.8 times. Moreover, in the assay with garland chrysanthemum (GSSG 0.1 mM, 25 mL per pot once a week), the “total free amino acid content compared with control” value is listed as “decreased”. The “free amino acid contents compared with total free amino acid content under control condition” value in the assay with garland chrysanthemum (GSSG 0.2 mM to 5 mM, 25 mL per pot once a week) is “increased concentration-dependently”. Besides, in the assay with Arabidopsis [1] (in vivo), the “asparagine content in a leaf” value was “largely increased” and the “serine content in a leaf” value is on record as “remarkably increased”.

Turning to `N[C@@H](CCC(=O)N[C@@H](CS)C(=O)NCC(=O)O)C(=O)O` [GSH, reduced glutathione], in the assay on Arabidopsis [2] (plants after 4 weeks from seeding), the “total free amino acid content relative to control condition (only water)” value is “about 2.9 times”. The “total free amino acid content relative to control condition (only water)” value with Arabidopsis [2] (plants after 5 weeks from seeding) was “about 2.4 times”. In the assay with Arabidopsis [1] (effect larger in leaf before photoirradiation (L0), 1 mM GSSG, 2 mM GSH, 3 mM NH4NO3), the “asparagine content in a leaf” value was “largely increased”. Moreover, the “serine content in a leaf” value with Arabidopsis [1] (treatment combined with photoirradiation for 8 hours (L8, 100 μE/m^2/s), 1 mM GSSG, 2 mM GSH, 3 mM NH4NO3) was “remarkably increased”. Also, in the assay on Japanese mustard spinach (setting [4]), the “GABA content relative to control” value was at least 2 times, the “arginine content relative to control” value was at least 2 times, the “asparagine content relative to control” value is recorded as at least 2 times and the “aspartic acid content relative to control” value is recorded as at least 2 times. In addition, in the assay with Japanese mustard spinach (setting [4]), the “glutamine content relative to control” value was at least 2 times, the “isoleucine content relative to control” value was at least 2 times and the “threonine content relative to control” value was at least 2 times.

Source of the values: US9930887B2, “Compound for increasing amino acid content in plant, and use thereof” (Okayama Prefecture, priority 2011, dated 2018).
